Source: ChEMBL document CHEMBL4002623, “Synthesis and in vitro activity of dicationic indolyl diphenyl ethers as novel potent antibiotic agents against drug-resistant bacteria” (Bioorg Med Chem Lett, 2017)
Values after ≈ are worked out from the molar mass of the structure shown.

Tests used:
Staphylococcus aureus [1] = test: Antibacterial activity against methicillin-sensitive Staphylococcus aureus ATCC 29213 by agar dilution method; type: functional
Staphylococcus aureus [2] = test: Antibacterial activity against methicillin-resistant Staphylococcus aureus 09-13 by agar dilution method; type: functional
[3] = test system: Staphylococcus epidermidis; test: Antibacterial activity against methicillin-sensitive Staphylococcus epidermidis ATCC 12228 by agar dilution method; type: functional
[4] = test system: Staphylococcus epidermidis; test: Antibacterial activity against methicillin-resistant Staphylococcus epidermidis 09-3 by agar dilution method; type: functional
Enterococcus faecalis [5] = test: Antibacterial activity against vancomycin-sensitive Enterococcus faecalis ATCC 29212 by agar dilution method; type: functional
Enterococcus faecalis [6] = test: Antibacterial activity against vancomycin-resistant Enterococcus faecalis 09-9 by agar dilution method; type: functional
Enterococcus faecium [7] = test: Antibacterial activity against vancomycin-resistant Enterococcus faecium ATCC 700221 by agar dilution method; type: functional
Escherichia coli [8] = test: Antibacterial activity against extended-spectrum beta-lactamase-negative Escherichia coli ATCC 25922 by agar dilution method; type: functional
Escherichia coli [9] = test: Antibacterial activity against extended-spectrum beta-lactamase-positive Escherichia coli 09-1 by agar dilution method; type: functional
Klebsiella pneumoniae [10] = test: Antibacterial activity against extended-spectrum beta-lactamase-negative Klebsiella pneumoniae 7 by agar dilution method; type: functional
Klebsiella pneumoniae [11] = test: Antibacterial activity against extended-spectrum beta-lactamase-positive Klebsiella pneumoniae 09-25 by agar dilution method; type: functional
Klebsiella pneumoniae [12] = test: Antibacterial activity against Klebsiella pneumoniae ATCC BAA-2146 expressing NDM-1 by agar dilution method; type: functional
[13] = Cytotoxicity against HEK293T cells after 48 hrs by MTS assay; type: cell-based, HEK-293T; details: human
Enterococcus faecium [14] = test: Antibacterial activity against vancomycin-sensitive Enterococcus faecium 09-10 by agar dilution method; type: functional
Staphylococcus aureus [15] = test: Antibacterial activity against methicillin-resistant Staphylococcus aureus ATCC 33591 by agar dilution method; type: functional
Staphylococcus aureus [16] = test: Antibacterial activity against methicillin-sensitive Staphylococcus aureus 15 by agar dilution method; type: functional
Staphylococcus aureus [17] = test: Antibacterial activity against methicillin-sensitive Staphylococcus aureus 09-6 by agar dilution method; type: functional
[18] = test system: Staphylococcus epidermidis; test: Antibacterial activity against methicillin-sensitive Staphylococcus epidermidis 09-9 by agar dilution method; type: functional
Enterococcus faecalis [19] = test: Antibacterial activity against vancomycin-resistant Enterococcus faecalis ATCC 51299 by agar dilution method; type: functional
Enterococcus faecalis [20] = test: Antibacterial activity against vancomycin-sensitive Enterococcus faecalis 09-8 by agar dilution method; type: functional
Enterococcus faecium [21] = test: Antibacterial activity against vancomycin-resistant Enterococcus faecium 05-8 by agar dilution method; type: functional
Escherichia coli [22] = test: Antibacterial activity against extended-spectrum beta-lactamase-negative Escherichia coli 1515 by agar dilution method; type: functional
Escherichia coli [23] = test: Antibacterial activity against extended-spectrum beta-lactamase-negative Escherichia coli 09-20 by agar dilution method; type: functional
Klebsiella pneumoniae [24] = test: Antibacterial activity against extended-spectrum beta-lactamase-positive Klebsiella pneumoniae ATCC 700603 by agar dilution method; type: functional
Klebsiella pneumoniae [25] = test: Antibacterial activity against extended-spectrum beta-lactamase-negative Klebsiella pneumoniae 09-8 by agar dilution method; type: functional
Pseudomonas aeruginosa [26] = test: Antibacterial activity against Pseudomonas aeruginosa ATCC 27853 by agar dilution method; type: functional
Pseudomonas aeruginosa [27] = test: Antibacterial activity against Pseudomonas aeruginosa PAO1 by agar dilution method; type: functional
Pseudomonas aeruginosa [28] = test: Antibacterial activity against Pseudomonas aeruginosa 09-14 by agar dilution method; type: functional
[29] = test system: Acinetobacter calcoaceticus; test: Antibacterial activity against Acinetobacter calcoaceticus ATCC 19606 by agar dilution method; type: functional
Enterobacter cloacae = test: Antibacterial activity against Enterobacter cloacae 45301 by agar dilution method; type: functional
Klebsiella aerogenes = test: Antibacterial activity against Enterobacter aerogenes 45102 by agar dilution method; type: functional
Serratia marcescens = test: Antibacterial activity against Serratia marcescens 41002 by agar dilution method; type: functional
Morganella morganii = test: Antibacterial activity against Morganella morganii ATCC 25830 by agar dilution method; type: functional
Providencia rettgeri = test: Antibacterial activity against Providencia rettgeri ATCC 31052 by agar dilution method; type: functional
Proteus vulgaris = test: Antibacterial activity against Proteus vulgaris ATCC 29905 by agar dilution method; type: functional
Proteus mirabilis = test: Antibacterial activity against Proteus mirabilis 09-1 by agar dilution method; type: functional
Salmonella typhi = test: Antibacterial activity against Salmonella typhi H901 by agar dilution method; type: functional, Salmonella enterica subsp. enterica serovar Typhi; details: Salmonella enterica
Citrobacter freundii = test: Antibacterial activity against Citrobacter freundii ATCC 43864 by agar dilution method; type: functional
Staphylococcus aureus [30] = test: Potency index, ratio of levofloxacin MIC to test compound MIC for methicillin-resistant Staphylococcus aureus 09-13; type: functional
[31] = test system: Staphylococcus epidermidis; test: Potency index, ratio of levofloxacin MIC to test compound MIC for methicillin-resistant Staphylococcus epidermidis 09-3; type: functional
Staphylococcus aureus [32] = test: Potency index, ratio of vancomycin MIC to test compound MIC for methicillin-resistant Staphylococcus aureus 09-13; type: functional
[33] = test system: Staphylococcus epidermidis; test: Potency index, ratio of vancomycin MIC to test compound MIC for methicillin-resistant Staphylococcus epidermidis 09-3; type: functional
Enterococcus faecalis [34] = test: Potency index, ratio of vancomycin MIC to test compound MIC for vancomycin-resistant Enterococcus faecalis 09-9; type: functional
Enterococcus faecium [35] = test: Potency index, ratio of vancomycin MIC to test compound MIC for vancomycin-resistant Enterococcus faecium ATCC 700221; type: functional

CNC(=N)c1ccc2cc(-c3ccc(Oc4ccc(-c5cc6ccc(C(=N)NC)cc6[nH]5)cc4)cc3)[nH]c2c1
MIC (Staphylococcus aureus [1]): 1 µg/mL (≈ 1.95 µM)
MIC (Staphylococcus aureus [2]): 0.5 µg/mL (≈ 0.975 µM)
MIC [3]: 0.25 µg/mL (≈ 0.488 µM)
MIC [4]: 0.5 µg/mL (≈ 0.975 µM)
MIC (Enterococcus faecalis [5]): 1 µg/mL (≈ 1.95 µM)
MIC (Enterococcus faecalis [6]): 1 µg/mL (≈ 1.95 µM)
MIC (Enterococcus faecium [7]): 0.5 µg/mL (≈ 0.975 µM)
MIC (Escherichia coli [8]): 128 µg/mL (≈ 250 µM)
MIC (Escherichia coli [9]): 128 µg/mL (≈ 250 µM)
MIC (Klebsiella pneumoniae [10]): > 128 µg/mL
MIC (Klebsiella pneumoniae [11]): > 128 µg/mL
MIC (Klebsiella pneumoniae [12]): > 128 µg/mL
CC50 at 48 h [13]: 12.2 µg/mL (≈ 23.8 µM)
MIC (Enterococcus faecium [14]): 1 µg/mL (≈ 1.95 µM)
MIC (Staphylococcus aureus [15]): 1 µg/mL (≈ 1.95 µM)
MIC (Staphylococcus aureus [16]): 1 µg/mL (≈ 1.95 µM)
MIC (Staphylococcus aureus [17]): 1 µg/mL (≈ 1.95 µM)
MIC [18]: 1 µg/mL (≈ 1.95 µM)
MIC (Enterococcus faecalis [19]): 1 µg/mL (≈ 1.95 µM)
MIC (Enterococcus faecalis [20]): 1 µg/mL (≈ 1.95 µM)
MIC (Enterococcus faecium [21]): 2 µg/mL (≈ 3.9 µM)
MIC (Escherichia coli [22]): 128 µg/mL (≈ 250 µM)
MIC (Escherichia coli [23]): > 128 µg/mL
MIC (Klebsiella pneumoniae [24]): > 128 µg/mL
MIC (Klebsiella pneumoniae [25]): > 128 µg/mL
MIC (Pseudomonas aeruginosa [26]): > 128 µg/mL
MIC (Pseudomonas aeruginosa [27]): > 128 µg/mL
MIC (Pseudomonas aeruginosa [28]): > 128 µg/mL
MIC [29]: > 128 µg/mL
MIC (Enterobacter cloacae): > 128 µg/mL
MIC (Klebsiella aerogenes): > 128 µg/mL
MIC (Serratia marcescens): > 128 µg/mL
MIC (Morganella morganii): 128 µg/mL (≈ 250 µM)
MIC (Providencia rettgeri): > 128 µg/mL
MIC (Proteus vulgaris): > 128 µg/mL
MIC (Proteus mirabilis): > 128 µg/mL
MIC (Salmonella typhi): 128 µg/mL (≈ 250 µM)
MIC (Citrobacter freundii): > 128 µg/mL
Ratio (Staphylococcus aureus [30]): 16 - 32
Ratio [31]: 16 - 32
Ratio (Staphylococcus aureus [32]): 4 - 8
Ratio [33]: 4 - 8
Ratio (Enterococcus faecalis [34]): 128 - 256
Ratio (Enterococcus faecium [35]): 128 - 256

N=C(c1ccc2cc(-c3ccc(Oc4ccc(-c5cc6ccc(C(=N)N7CCC(N8CCCC8)CC7)cc6[nH]5)cc4)cc3)[nH]c2c1)N1CCC(N2CCCC2)CC1
MIC (Staphylococcus aureus [1]): 8 µg/mL (≈ 10.5 µM)
MIC (Staphylococcus aureus [2]): 8 µg/mL (≈ 10.5 µM)
MIC [3]: 3 to 8 µg/mL (≈ 3.95 to 10.5 µM)
MIC [4]: 8 µg/mL (≈ 10.5 µM)
MIC (Enterococcus faecalis [5]): 8 µg/mL (≈ 10.5 µM)
MIC (Enterococcus faecalis [6]): 16 µg/mL (≈ 21.1 µM)
MIC (Enterococcus faecium [7]): 8 µg/mL (≈ 10.5 µM)
MIC (Escherichia coli [8]): 32 µg/mL (≈ 42.2 µM)
MIC (Escherichia coli [9]): 64 µg/mL (≈ 84.3 µM)
MIC (Klebsiella pneumoniae [10]): 128 µg/mL (≈ 169 µM)
MIC (Klebsiella pneumoniae [11]): 128 µg/mL (≈ 169 µM)
MIC (Klebsiella pneumoniae [12]): 128 µg/mL (≈ 169 µM)
CC50 at 48 h [13]: 1.1 µg/mL (≈ 1.45 µM)
MIC (Enterococcus faecium [14]): 8 µg/mL (≈ 10.5 µM)
MIC (Staphylococcus aureus [15]): 8 µg/mL (≈ 10.5 µM)
MIC (Staphylococcus aureus [16]): 8 µg/mL (≈ 10.5 µM)
MIC (Staphylococcus aureus [17]): 8 µg/mL (≈ 10.5 µM)
MIC [18]: 8 µg/mL (≈ 10.5 µM)
MIC (Enterococcus faecalis [19]): 8 µg/mL (≈ 10.5 µM)
MIC (Enterococcus faecalis [20]): 8 µg/mL (≈ 10.5 µM)
MIC (Enterococcus faecium [21]): 8 µg/mL (≈ 10.5 µM)
MIC (Escherichia coli [22]): 64 µg/mL (≈ 84.3 µM)
MIC (Escherichia coli [23]): 32 µg/mL (≈ 42.2 µM)
MIC (Klebsiella pneumoniae [24]): > 128 µg/mL
MIC (Klebsiella pneumoniae [25]): 128 µg/mL (≈ 169 µM)
MIC (Pseudomonas aeruginosa [26]): > 128 µg/mL
MIC (Pseudomonas aeruginosa [27]): > 128 µg/mL
MIC (Pseudomonas aeruginosa [28]): > 128 µg/mL
MIC [29]: > 128 µg/mL
MIC (Enterobacter cloacae): 64 µg/mL (≈ 84.3 µM)
MIC (Klebsiella aerogenes): 128 µg/mL (≈ 169 µM)
MIC (Serratia marcescens): > 128 µg/mL
MIC (Morganella morganii): 128 µg/mL (≈ 169 µM)
MIC (Providencia rettgeri): > 128 µg/mL
MIC (Proteus vulgaris): > 128 µg/mL
MIC (Proteus mirabilis): > 128 µg/mL
MIC (Salmonella typhi): 32 µg/mL (≈ 42.2 µM)
MIC (Citrobacter freundii): > 128 µg/mL

CC1CC(C)CN(C(=N)c2ccc3cc(-c4ccc(Oc5ccc(-c6cc7ccc(C(=N)N8CC(C)CC(C)C8)cc7[nH]6)cc5)cc4)[nH]c3c2)C1 (stereo not given)
MIC (Staphylococcus aureus [1]): 64 µg/mL (≈ 94.5 µM)
MIC (Staphylococcus aureus [2]): 16 µg/mL (≈ 23.6 µM)
MIC [3]: 16 µg/mL (≈ 23.6 µM)
MIC [4]: 16 µg/mL (≈ 23.6 µM)
MIC (Enterococcus faecalis [5]): 128 µg/mL (≈ 189 µM)
MIC (Enterococcus faecalis [6]): 64 µg/mL (≈ 94.5 µM)
MIC (Enterococcus faecium [7]): 128 µg/mL (≈ 189 µM)
MIC (Escherichia coli [8]): > 128 µg/mL
MIC (Escherichia coli [9]): > 128 µg/mL
MIC (Klebsiella pneumoniae [10]): > 128 µg/mL
MIC (Klebsiella pneumoniae [11]): > 128 µg/mL
MIC (Klebsiella pneumoniae [12]): > 128 µg/mL
CC50 at 48 h [13]: 2.6 µg/mL (≈ 3.84 µM)
MIC (Enterococcus faecium [14]): 128 µg/mL (≈ 189 µM)
MIC (Staphylococcus aureus [15]): 64 µg/mL (≈ 94.5 µM)
MIC (Staphylococcus aureus [16]): 64 µg/mL (≈ 94.5 µM)
MIC (Staphylococcus aureus [17]): 64 µg/mL (≈ 94.5 µM)
MIC [18]: 64 µg/mL (≈ 94.5 µM)
MIC (Enterococcus faecalis [19]): 64 µg/mL (≈ 94.5 µM)
MIC (Enterococcus faecalis [20]): 64 µg/mL (≈ 94.5 µM)
MIC (Enterococcus faecium [21]): > 128 µg/mL
MIC (Escherichia coli [22]): > 128 µg/mL
MIC (Escherichia coli [23]): > 128 µg/mL
MIC (Klebsiella pneumoniae [24]): > 128 µg/mL
MIC (Klebsiella pneumoniae [25]): > 128 µg/mL
MIC (Pseudomonas aeruginosa [26]): > 128 µg/mL
MIC (Pseudomonas aeruginosa [27]): > 128 µg/mL
MIC (Pseudomonas aeruginosa [28]): > 128 µg/mL
MIC [29]: > 128 µg/mL
MIC (Enterobacter cloacae): > 128 µg/mL
MIC (Klebsiella aerogenes): > 128 µg/mL
MIC (Serratia marcescens): > 128 µg/mL
MIC (Morganella morganii): > 128 µg/mL
MIC (Providencia rettgeri): > 128 µg/mL
MIC (Proteus vulgaris): > 128 µg/mL
MIC (Proteus mirabilis): > 128 µg/mL
MIC (Salmonella typhi): > 128 µg/mL
MIC (Citrobacter freundii): > 128 µg/mL
